{
  "source": "ChEMBL document CHEMBL5576048",
  "about": "“A Second-Generation Oral SARS-CoV-2 Main Protease Inhibitor Clinical Candidate for the Treatment of COVID-19” (J Med Chem, 2024)",
  "test_system": "SARS-CoV-2",
  "test": "Antiviral activity against SARS-CoV-2 Delta variant infected in African green monkey VeroE6/TMPRSS2 cells",
  "type": "functional, organism-based",
  "conditions": "Severe acute respiratory syndrome coronavirus 2, Delta",
  "data": [
    {"molecule": "CCC(CC)COC(=O)[C@H](C)N[P@](=O)(OC[C@H]1O[C@@](C#N)(c2ccc3c(N)ncnn23)[C@H](O)[C@@H]1O)Oc1ccccc1", "values": [
      {"measurement": "EC50", "result": 161, "unit": "nM"}
    ]}
  ]
}
